{"source": "patent US12295936B2", "about": "“Immunomodulating urea azalides” (Zoetis Services LLC, priority 2020, dated 2025)"}
{"tested_on": "BRD pathogens, M. haemolytica and P. multocida", "assay": "MIC screening panel of BRD pathogens (antibacterial / non-antibacterial)", "details": "read-out: antibacterial / non-antibacterial (MIC for the BRD pathogens)", "units": {"MIC": "µg/mL"}}
{"smiles": "CC[C@H]1OC(=O)[C@H](C)[C@@H](O[C@H]2C[C@@](C)(OC)[C@](O)(CNCCS(C)(=O)=O)[C@H](C)O2)[C@H](C)[C@@H](O[C@@H]2O[C@H](C)C[C@H](N(C)C(=O)N(C)c3ccccc3)[C@H]2O)[C@](C)(O)C[C@@H](C)CN[C@H](C)[C@@H](O)[C@]1(C)O", "note": "[Example H-21, 1-((2S,3R,4S,6R)-2-(((2R,3S,4R,5R,8R,10R,11R,12S,13S,14R)-2-ethyl-3,4,10-trihydroxy-13-(((2R,4R,5S,6S)-5-hydroxy-4-methoxy-4,6-dimethyl-5-(((2-(methylsulfonyl)ethyl)amino)methyl)tetrahydro-2H-pyran-2-yl)oxy)-3,5,8,10,12,14-hexamethyl-15-oxo-1-oxa-6-azacyclopentadecan-11-yl)oxy)-3-hydroxy-6-methyltetrahydro-2H-pyran-4-yl)-1,3-dimethyl-3-phenylurea]", "MIC": "> 64"}
{"smiles": "CC[C@H]1OC(=O)[C@H](C)[C@@H](O[C@H]2C[C@@](C)(OC)[C@](O)(CNCCC3CC3)[C@H](C)O2)[C@H](C)[C@@H](O[C@@H]2O[C@H](C)C[C@H](N(C)C(=O)N(C)c3ccccc3)[C@H]2O)[C@](C)(O)C[C@@H](C)CN[C@H](C)[C@@H](O)[C@]1(C)O", "note": "[Example H-34, 1-((2S,3R,4S,6R)-2-(((2R,3S,4R,5R,8R,10R,11R,12S,13S,14R)-13-(((2R,4R,5S,6S)-5-(((2-cyclopropylethyl)amino)methyl)-5-hydroxy-4-methoxy-4,6-dimethyltetrahydro-2H-pyran-2-yl)oxy)-2-ethyl-3,4,10-trihydroxy-3,5,8,10,12,14-hexamethyl-15-oxo-1-oxa-6-azacyclopentadecan-11-yl)oxy)-3-hydroxy-6-methyltetrahydro-2H-pyran-4-yl)-1,3-dimethyl-3-phenylurea]", "MIC": "> 64"}
{"smiles": "CCCN(C[C@]1(O)[C@H](C)O[C@@H](O[C@H]2[C@H](C)[C@@H](O[C@@H]3O[C@H](C)C[C@H](N(C)C(=O)Nc4ccc(F)cc4)[C@H]3O)[C@](C)(O)C[C@@H](C)CN[C@H](C)[C@@H](O)[C@](C)(O)[C@@H](CC)OC(=O)[C@@H]2C)C[C@@]1(C)OC)C(=O)Nc1ccc(F)cc1", "note": "[Example H-10, 1-((2S,3R,4S,6R)-2-(((2R,3S,4R,5R,8R,10R,11R,12S,13S,14R)-2-ethyl-13-(((2R,4R,5S,6S)-5-((3-(4-fluorophenyl)-1-propylureido)methyl)-5-hydroxy-4-methoxy-4,6-dimethyltetrahydro-2H-pyran-2-yl)oxy)-3,4,10-trihydroxy-3,5,8,10,12,14-hexamethyl-15-oxo-1-oxa-6-azacyclopentadecan-11-yl)oxy)-3-hydroxy-6-methyltetrahydro-2H-pyran-4-yl)-3-(4-fluorophenyl)-1-methylurea]", "MIC": "> 64"}
{"smiles": "CCCNC[C@]1(O)[C@H](C)O[C@@H](O[C@H]2[C@H](C)[C@@H](O[C@@H]3O[C@H](C)C[C@H](N(C)C(=O)Nc4cccc(C#N)c4)[C@H]3O)[C@](C)(O)C[C@@H](C)CN[C@H](C)[C@@H](O)[C@](C)(O)[C@@H](CC)OC(=O)[C@@H]2C)C[C@@]1(C)OC", "note": "[Example H-79, 3-(3-cyanophenyl)-1-((2S,3R,4S,6R)-2-(((2R,3S,4R,5R,8R,10R,11R,12S,13S,14R)-2-ethyl-3,4,10-trihydroxy-13-(((2R,4R,5S,6S)-5-hydroxy-4-methoxy-4,6-dimethyl-5-((propylamino)methyl)tetrahydro-2H-pyran-2-yl)oxy)-3,5,8,10,12,14-hexamethyl-15-oxo-1-oxa-6-azacyclopentadecan-11-yl)oxy)-3-hydroxy-6-methyltetrahydro-2H-pyran-4-yl)-1-methylurea]", "MIC": "> 64"}
{"smiles": "CCOC[C@]1(O)[C@H](C)O[C@@H](O[C@H]2[C@H](C)[C@@H](O[C@@H]3O[C@H](C)C[C@H](N(C)C(=O)Nc4ccccc4)[C@H]3O)[C@](C)(O)C[C@@H](C)CN[C@H](C)[C@@H](O)[C@](C)(O)[C@@H](CC)OC(=O)[C@@H]2C)C[C@@]1(C)OC", "note": "[Example C-1, 1-((2S,3R,4S,6R)-2-(((2R,3S,4R,5R,8R,10R,11R,12S,13S,14R)-13-(((2R,4R,5S,6S)-5-(ethoxymethyl)-5-hydroxy-4-methoxy-4,6-dimethyltetrahydro-2H-pyran-2-yl)oxy)-2-ethyl-3,4,10-trihydroxy-3,5,8,10,12,14-hexamethyl-15-oxo-1-oxa-6-azacyclopentadecan-11-yl)oxy)-3-hydroxy-6-methyltetrahydro-2H-pyran-4-yl)-1-methyl-3-phenylurea]", "MIC": "> 64"}
{"smiles": "CC[C@H]1OC(=O)[C@H](C)[C@@H](O)[C@H](C)[C@@H](O[C@@H]2O[C@H](C)C[C@H](N(C)C(=O)Nc3cccc(C(F)(F)F)c3)[C@H]2O)[C@](C)(O)C[C@@H](C)CN[C@H](C)[C@@H](O)[C@]1(C)O", "note": "[Example A-10, 1-((2S,3R,4S,6R)-2-(((2R,3S,4R,5R,8R,10R,11R,12S,13S,14R)-2-ethyl-3,4,10,13-tetrahydroxy-3,5,8,10,12,14-hexamethyl-15-oxo-1-oxa-6-azacyclopentadecan-11-yl)oxy)-3-hydroxy-6-methyltetrahydro-2H-pyran-4-yl)-1-methyl-3-(3-(trifluoromethyl)phenyl)urea]", "MIC": "> 64"}
{"smiles": "CCCNC[C@]1(O)[C@H](C)O[C@@H](O[C@H]2[C@H](C)[C@@H](O[C@@H]3O[C@H](C)C[C@H](N(C)C(=O)Nc4ccc(Cl)cc4)[C@H]3O)[C@](C)(O)C[C@@H](C)CN[C@H](C)[C@@H](O)[C@](C)(O)[C@@H](CC)OC(=O)[C@@H]2C)C[C@@]1(C)OC", "note": "[Example H-84, 3-(4-chlorophenyl)-1-((2S,3R,4S,6R)-2-(((2R,3S,4R,5R,8R,10R,11R,12S,13S,14R)-2-ethyl-3,4,10-trihydroxy-13-(((2R,4R,5S,6S)-5-hydroxy-4-methoxy-4,6-dimethyl-5-((propylamino)methyl)tetrahydro-2H-pyran-2-yl)oxy)-3,5,8,10,12,14-hexamethyl-15-oxo-1-oxa-6-azacyclopentadecan-11-yl)oxy)-3-hydroxy-6-methyltetrahydro-2H-pyran-4-yl)-1-methylurea]", "MIC": "> 64"}
{"smiles": "CC[C@H]1OC(=O)[C@H](C)[C@@H](O[C@H]2C[C@@](C)(OC)[C@](O)(CC#N)[C@H](C)O2)[C@H](C)[C@@H](O[C@@H]2O[C@H](C)C[C@H](N(C)C(=O)Nc3ccccc3)[C@H]2O)[C@](C)(O)C[C@@H](C)CN[C@H](C)[C@@H](O)[C@]1(C)O", "note": "[Example G-1, 1-((2S,3R,4S,6R)-2-(((2R,3S,4R,5R,8R,10R,11R,12S,13S,14R)-13-(((2R,4R,5S,6S)-5-(cyanomethyl)-5-hydroxy-4-methoxy-4,6-dimethyltetrahydro-2H-pyran-2-yl)oxy)-2-ethyl-3,4,10-trihydroxy-3,5,8,10,12,14-hexamethyl-15-oxo-1-oxa-6-azacyclopentadecan-11-yl)oxy)-3-hydroxy-6-methyltetrahydro-2H-pyran-4-yl)-1-methyl-3-phenylurea]", "MIC": "> 64"}
{"smiles": "CCCNC[C@]1(O)[C@H](C)O[C@@H](O[C@H]2[C@H](C)[C@@H](O[C@@H]3O[C@H](C)C[C@H](N(C)C(=O)N(C)c4ccc(O)cc4)[C@H]3O)[C@](C)(O)C[C@@H](C)CN[C@H](C)[C@@H](O)[C@](C)(O)[C@@H](CC)OC(=O)[C@@H]2C)C[C@@]1(C)OC", "note": "[Example H-99, 1-((2S,3R,4S,6R)-2-(((2R,3S,4R,5R,8R,10R,11R,12S,13S,14R)-2-ethyl-3,4,10-trihydroxy-13-(((2R,4R,5S,6S)-5-hydroxy-4-methoxy-4,6-dimethyl-5-((propylamino)methyl)tetrahydro-2H-pyran-2-yl)oxy)-3,5,8,10,12,14-hexamethyl-15-oxo-1-oxa-6-azacyclopentadecan-11-yl)oxy)-3-hydroxy-6-methyltetrahydro-2H-pyran-4-yl)-3-(4-hydroxyphenyl)-1,3-dimethylurea]", "MIC": "> 64"}
{"smiles": "CC[C@H]1OC(=O)[C@H](C)[C@@H](O[C@H]2C[C@@](C)(OC)[C@](O)(CNCCCn3ccccc3=O)[C@H](C)O2)[C@H](C)[C@@H](O[C@@H]2O[C@H](C)C[C@H](N(C)C(=O)N(C)c3ccccc3)[C@H]2O)[C@](C)(O)C[C@@H](C)CN[C@H](C)[C@@H](O)[C@]1(C)O", "note": "[Example H-47, 1-((2S,3R,4S,6R)-2-(((2R,3S,4R,5R,8R,10R,11R,12S,13S,14R)-2-ethyl-3,4,10-trihydroxy-13-(((2R,4R,5S,6S)-5-hydroxy-4-methoxy-4,6-dimethyl-5-(((3-(2-oxopyridin-1(2H)-yl)propyl)amino)methyl)tetrahydro-2H-pyran-2-yl)oxy)-3,5,8,10,12,14-hexamethyl-15-oxo-1-oxa-6-azacyclopentadecan-11-yl)oxy)-3-hydroxy-6-methyltetrahydro-2H-pyran-4-yl)-1,3-dimethyl-3-phenylurea]", "MIC": "> 64"}
{"smiles": "CC[C@H]1OC(=O)[C@H](C)[C@@H](O[C@H]2C[C@@](C)(OC)[C@@H](O)[C@H](C)O2)[C@H](C)[C@@H](O[C@@H]2O[C@H](C)C[C@H](N(C)C(=O)Nc3ccc(C#N)cc3)[C@H]2O)[C@](C)(O)C[C@@H](C)CN(C)[C@H](C)[C@@H](O)[C@]1(C)O", "note": "[Example B-12, 3-(4-cyanophenyl)-1-((2S,3R,4S,6R)-2-(((2R,3S,4R,5R,8R,10R,11R,12S,13S,14R)-2-ethyl-3,4,10-trihydroxy-13-(((2R,4R,5S,6S)-5-hydroxy-4-methoxy-4,6-dimethyltetrahydro-2H-pyran-2-yl)oxy)-3,5,6,8,10,12,14-heptamethyl-15-oxo-1-oxa-6-azacyclopentadecan-11-yl)oxy)-3-hydroxy-6-methyltetrahydro-2H-pyran-4-yl)-1-methylurea]", "MIC": "> 64"}
{"smiles": "CCCNC[C@]1(O)[C@H](C)O[C@@H](O[C@H]2[C@H](C)[C@@H](O[C@@H]3O[C@H](C)C[C@H](N(C)C(=O)N(C)c4ccccc4)[C@H]3O)[C@](C)(O)C[C@@H](C)CN(C)[C@H](C)[C@@H](O)[C@](C)(O)[C@@H](CC)OC(=O)[C@@H]2C)C[C@@]1(C)OC", "note": "[Example H-101, 1-((2S,3R,4S,6R)-2-(((2R,3S,4R,5R,8R,10R,11R,12S,13S,14R)-2-ethyl-3,4,10-trihydroxy-13-(((2R,4R,5S,6S)-5-hydroxy-4-methoxy-4,6-dimethyl-5-((propylamino)methyl)tetrahydro-2H-pyran-2-yl)oxy)-3,5,6,8,10,12,14-heptamethyl-15-oxo-1-oxa-6-azacyclopentadecan-11-yl)oxy)-3-hydroxy-6-methyltetrahydro-2H-pyran-4-yl)-1,3-dimethyl-3-phenylurea]", "MIC": "> 64"}
